What was measured:
Assay in all cases: relative viability (nuclei count vs DMSO), 5 days (fraction); higher = more cells survive
Selisistat + Bortezomib = compound: C1CC(C2=C(C1)C3=C(N2)C=CC(=C3)Cl)C(=O)N [Selisistat] + CC(C)C[C@H](NC(=O)[C@H](Cc1ccccc1)NC(=O)c1cnccn1)B(O)O [Bortezomib] (partner 0.002 µM)
Method in brief: (§1)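 The day after seeding in 1536-well plates, lung cancer cell lines were treated by pin tool with a single drug, or with a fixed anchor-drug dose together with five library-drug doses (not always all listed) in √10 steps. After 5 days, a combined fix-and-stain solution (final 0.05% Triton X-100, 1% formaldehyde, 1 ug/ml Hoechst) was added. Nuclei counted on 4× images gave relative viability as treated counts over vehicle counts, reported as the median of duplicate plates.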

Selisistat + Lapatinib = compound: C1CC(C2=C(C1)C3=C(N2)C=CC(=C3)Cl)C(=O)N [Selisistat] + CS(=O)(=O)CCNCc1ccc(-c2ccc3ncnc(Nc4ccc(OCc5cccc(F)c5)c(Cl)c4)c3c2)o1 [Lapatinib] (partner 2 µM)
Method in brief: as §1

Selisistat + Tozasertib = compound: C1CC(C2=C(C1)C3=C(N2)C=CC(=C3)Cl)C(=O)N [Selisistat] + Cc1cc(Nc2cc(N3CCN(C)CC3)nc(Sc3ccc(NC(=O)C4CC4)cc3)n2)n[nH]1 [Tozasertib] (partner 0.1 µM)
Method in brief: as §1

Selisistat + Olaparib = compound: C1CC(C2=C(C1)C3=C(N2)C=CC(=C3)Cl)C(=O)N [Selisistat] + O=C(c1cc(Cc2n[nH]c(=O)c3ccccc23)ccc1F)N1CCN(C(=O)C2CC2)CC1 [Olaparib] (partner 8 µM)
Method in brief: as §1

Work on LC-2-ad yielded a relative viability (Selisistat + Bortezomib; first compound 0.4 µM) of 1, a relative viability (Selisistat + Bortezomib; first compound 1.265 µM) of 1.02 and a relative viability (Selisistat + Bortezomib; first compound 4 µM) of 1.03. For the same cell line, the relative viability (Selisistat + Bortezomib; first compound 12.65 µM) was 0.985, the relative viability (Selisistat + Bortezomib; first compound 40 µM) was 1.05 and the relative viability (Selisistat + Lapatinib; first compound 0.4 µM) was 1.01. It also gave a relative viability (Selisistat + Lapatinib; first compound 1.265 µM) of 0.968, a relative viability (Selisistat + Lapatinib; first compound 4 µM) of 0.803 and a relative viability (Selisistat + Lapatinib; first compound 12.65 µM) of 0.833. The relative viability (Selisistat + Lapatinib; first compound 40 µM) was 1.04, the relative viability (Selisistat + Tozasertib; first compound 0.4 µM) was 0.535 and the relative viability (Selisistat + Tozasertib; first compound 4 µM) was 0.378. The relative viability (Selisistat + Tozasertib; first compound 12.65 µM) was 0.433, the relative viability (Selisistat + Tozasertib; first compound 40 µM) was 0.529 and the relative viability (Selisistat + Olaparib; first compound 0.4 µM) was 0.801. The relative viability (Selisistat + Olaparib; first compound 1.265 µM) was 0.69, the relative viability (Selisistat + Olaparib; first compound 4 µM) was 0.717 and the relative viability (Selisistat + Olaparib; first compound 12.65 µM) was 0.633. The relative viability (Selisistat + Olaparib; first compound 40 µM) was 0.71.
For NCI-H2170, the relative viability (Selisistat + Lapatinib; first compound 0.4 µM) was 0.265, the relative viability (Selisistat + Lapatinib; first compound 1.265 µM) was 0.272 and the relative viability (Selisistat + Lapatinib; first compound 4 µM) was 0.268. The relative viability (Selisistat + Lapatinib; first compound 12.65 µM) was 0.28, the relative viability (Selisistat + Lapatinib; first compound 40 µM) was 0.253 and the relative viability (Selisistat + Tozasertib; first compound 0.4 µM) was 0.732. The relative viability (Selisistat + Tozasertib; first compound 1.265 µM) was 0.592, the relative viability (Selisistat + Tozasertib; first compound 4 µM) was 0.703 and the relative viability (Selisistat + Tozasertib; first compound 12.65 µM) was 0.629. The relative viability (Selisistat + Tozasertib; first compound 40 µM) was 0.8, the relative viability (Selisistat + Olaparib; first compound 0.4 µM) was 0.596 and the relative viability (Selisistat + Olaparib; first compound 1.265 µM) was 0.581. It also gave a relative viability (Selisistat + Olaparib; first compound 4 µM) of 0.647, a relative viability (Selisistat + Olaparib; first compound 12.65 µM) of 0.585 and a relative viability (Selisistat + Olaparib; first compound 40 µM) of 0.664.
With NCI-H1299 the relative viability (Selisistat + Bortezomib; first compound 0.4 µM) was 1.07, the relative viability (Selisistat + Bortezomib; first compound 1.265 µM) was 1.07 and the relative viability (Selisistat + Bortezomib; first compound 4 µM) was 1.05. For the same cell line, the relative viability (Selisistat + Bortezomib; first compound 12.65 µM) was 1.03, the relative viability (Selisistat + Bortezomib; first compound 40 µM) was 1.02 and the relative viability (Selisistat + Lapatinib; first compound 0.4 µM) was 0.967. It also gave a relative viability (Selisistat + Lapatinib; first compound 1.265 µM) of 0.947, a relative viability (Selisistat + Lapatinib; first compound 4 µM) of 0.961 and a relative viability (Selisistat + Lapatinib; first compound 12.65 µM) of 0.991. For the same cell line, the relative viability (Selisistat + Lapatinib; first compound 40 µM) was 0.964, the relative viability (Selisistat + Olaparib; first compound 0.4 µM) was 1.04 and the relative viability (Selisistat + Olaparib; first compound 1.265 µM) was 0.972. For the same cell line, the relative viability (Selisistat + Olaparib; first compound 4 µM) was 1, the relative viability (Selisistat + Olaparib; first compound 12.65 µM) was 1.03 and the relative viability (Selisistat + Olaparib; first compound 40 µM) was 1.02.
EBC-1 showed a relative viability (Selisistat + Bortezomib; first compound 0.4 µM) of 0.611, a relative viability (Selisistat + Bortezomib; first compound 1.265 µM) of 0.551 and a relative viability (Selisistat + Bortezomib; first compound 4 µM) of 0.673. It also gave a relative viability (Selisistat + Bortezomib; first compound 12.65 µM) of 0.494, a relative viability (Selisistat + Bortezomib; first compound 40 µM) of 0.486 and a relative viability (Selisistat + Lapatinib; first compound 0.4 µM) of 0.256. It also gave a relative viability (Selisistat + Lapatinib; first compound 1.265 µM) of 0.208, a relative viability (Selisistat + Lapatinib; first compound 4 µM) of 0.224 and a relative viability (Selisistat + Lapatinib; first compound 12.65 µM) of 0.243. It also gave a relative viability (Selisistat + Lapatinib; first compound 40 µM) of 0.244, a relative viability (Selisistat + Olaparib; first compound 0.4 µM) of 0.763 and a relative viability (Selisistat + Olaparib; first compound 1.265 µM) of 0.732. For the same cell line, the relative viability (Selisistat + Olaparib; first compound 4 µM) was 0.711, the relative viability (Selisistat + Olaparib; first compound 12.65 µM) was 0.728 and the relative viability (Selisistat + Olaparib; first compound 40 µM) was 0.66.
NCI-H2342 gave a relative viability (Selisistat + Tozasertib; first compound 0.4 µM) of 0.504, a relative viability (Selisistat + Tozasertib; first compound 1.265 µM) of 0.502 and a relative viability (Selisistat + Tozasertib; first compound 4 µM) of 0.504. For the same cell line, the relative viability (Selisistat + Tozasertib; first compound 12.65 µM) was 0.502, the relative viability (Selisistat + Tozasertib; first compound 40 µM) was 0.57 and the relative viability (Selisistat + Olaparib; first compound 0.4 µM) was 0.4. The relative viability (Selisistat + Olaparib; first compound 1.265 µM) was 0.397, the relative viability (Selisistat + Olaparib; first compound 4 µM) was 0.468 and the relative viability (Selisistat + Olaparib; first compound 12.65 µM) was 0.475. For the same cell line, the relative viability (Selisistat + Olaparib; first compound 40 µM) was 0.461.
Cell Line NCI-H1792 has a relative viability (Selisistat + Bortezomib; first compound 0.4 µM) of 0.967, a relative viability (Selisistat + Bortezomib; first compound 1.265 µM) of 1 and a relative viability (Selisistat + Bortezomib; first compound 12.65 µM) of 0.71. The relative viability (Selisistat + Bortezomib; first compound 40 µM) was 1.07, the relative viability (Selisistat + Lapatinib; first compound 0.4 µM) was 0.917 and the relative viability (Selisistat + Lapatinib; first compound 1.265 µM) was 0.89. For the same cell line, the relative viability (Selisistat + Lapatinib; first compound 12.65 µM) was 0.829, the relative viability (Selisistat + Lapatinib; first compound 40 µM) was 0.926 and the relative viability (Selisistat + Olaparib; first compound 0.4 µM) was 0.47. It also gave a relative viability (Selisistat + Olaparib; first compound 1.265 µM) of 0.403, a relative viability (Selisistat + Olaparib; first compound 12.65 µM) of 0.479 and a relative viability (Selisistat + Olaparib; first compound 40 µM) of 0.442.
Cell Line ChaGo-K-1 has a relative viability (Selisistat + Bortezomib; first compound 0.4 µM) of 0.972, a relative viability (Selisistat + Bortezomib; first compound 1.265 µM) of 1.03 and a relative viability (Selisistat + Bortezomib; first compound 12.65 µM) of 0.917. For the same cell line, the relative viability (Selisistat + Bortezomib; first compound 40 µM) was 0.821, the relative viability (Selisistat + Tozasertib; first compound 0.4 µM) was 0.213 and the relative viability (Selisistat + Tozasertib; first compound 1.265 µM) was 0.214. The relative viability (Selisistat + Tozasertib; first compound 4 µM) was 0.232, the relative viability (Selisistat + Tozasertib; first compound 12.65 µM) was 0.186 and the relative viability (Selisistat + Tozasertib; first compound 40 µM) was 0.245. For the same cell line, the relative viability (Selisistat + Olaparib; first compound 0.4 µM) was 0.439, the relative viability (Selisistat + Olaparib; first compound 1.265 µM) was 0.409 and the relative viability (Selisistat + Olaparib; first compound 4 µM) was 0.438. The relative viability (Selisistat + Olaparib; first compound 12.65 µM) was 0.351 and the relative viability (Selisistat + Olaparib; first compound 40 µM) was 0.388.
LK-2 showed a relative viability (Selisistat + Lapatinib; first compound 0.4 µM) of 0.858, a relative viability (Selisistat + Lapatinib; first compound 1.265 µM) of 0.749 and a relative viability (Selisistat + Lapatinib; first compound 4 µM) of 0.701. For the same cell line, the relative viability (Selisistat + Lapatinib; first compound 12.65 µM) was 0.935, the relative viability (Selisistat + Lapatinib; first compound 40 µM) was 1.05 and the relative viability (Selisistat + Tozasertib; first compound 0.4 µM) was 0.155. The relative viability (Selisistat + Tozasertib; first compound 1.265 µM) was 0.189, the relative viability (Selisistat + Tozasertib; first compound 4 µM) was 0.197 and the relative viability (Selisistat + Tozasertib; first compound 12.65 µM) was 0.176. For the same cell line, the relative viability (Selisistat + Tozasertib; first compound 40 µM) was 0.18, the relative viability (Selisistat + Olaparib; first compound 0.4 µM) was 0.721 and the relative viability (Selisistat + Olaparib; first compound 1.265 µM) was 0.652. It also gave a relative viability (Selisistat + Olaparib; first compound 4 µM) of 0.675, a relative viability (Selisistat + Olaparib; first compound 12.65 µM) of 0.588 and a relative viability (Selisistat + Olaparib; first compound 40 µM) of 0.782.
NCI-H1944 was tested, and the relative viability (Selisistat + Lapatinib; first compound 0.4 µM) was 0.797, the relative viability (Selisistat + Lapatinib; first compound 1.265 µM) was 0.767 and the relative viability (Selisistat + Lapatinib; first compound 12.65 µM) was 0.746. The relative viability (Selisistat + Lapatinib; first compound 40 µM) was 0.854, the relative viability (Selisistat + Tozasertib; first compound 0.4 µM) was 0.273 and the relative viability (Selisistat + Tozasertib; first compound 1.265 µM) was 0.243. The relative viability (Selisistat + Tozasertib; first compound 12.65 µM) was 0.231, the relative viability (Selisistat + Tozasertib; first compound 40 µM) was 0.256 and the relative viability (Selisistat + Olaparib; first compound 0.4 µM) was 0.431. For the same cell line, the relative viability (Selisistat + Olaparib; first compound 1.265 µM) was 0.381, the relative viability (Selisistat + Olaparib; first compound 4 µM) was 0.335 and the relative viability (Selisistat + Olaparib; first compound 12.65 µM) was 0.357. The relative viability (Selisistat + Olaparib; first compound 40 µM) was 0.413.
